One series has as its system Leishmania infantum. As to the kind of experiment: Leishmanicidal activity against promastigotes (resazurin). Conditions: for IC50: Leishmania infantum, promastigote form, 24 h treatment, resazurin, read-out: IC50 L. infantum; for SI L. infantum: selectivity index = CC50 (Vero) / IC50 (L. infantum promastigotes). Format: cell-based. How it is done:
(§1) The Leishmania infantum and Leishmania braziliensis strains were maintained in Schneider medium supplemented with 20% of SFB (Schneider 20%), cultivated in […] bottles and stored at 28 °C in a BOD oven. For the assays, parasites at the 5th day stationary growth phase were used.
(§2) The promastigotes metacyclic form of Leishmania infantum and Leishmania braziliensis were first filtered with an insulin syringe to break up rosettes and, then, were isolated from the culture in the stationary phase by centrifugation of 400× g for 4 min at a temperature of 4 °C [53]. The supernatant was subjected to a new centrifugation, heavier, of 2000× g for 30 min, also at 4 °C. The supernatant was discarded and the cell pallet formed from this centrifugation was resuspended in 10 mL of 10% Schneider medium. The process ensured the removal of cellular debris and dead parasites, as well as possible crystals from the culture medium, so that the quality of the experiment was guaranteed. Then, the promastigotes were diluted to 1:10 in paraformaldehyde (PFA) for counting in a Neubauer Chamber, with the concentrations adjusted for each experiment.
(§3) An amount of 1 × 10^7 parasites per well was used. The parasites were plated in 96-well plates. Then, the compounds were added in triplicate, starting at a concentration of 500 µM, with serial dilutions being performed up to a concentration of 3.9 µM [53]. The treatment was carried out for 24 h and, after adding 5 µL of resazurin, the fluorescence was read using a Enspire model spectrofluorometer (Perkin-Elmer, Waltham, MA, USA).
A general note: Alamar Blue is a resazurin reagent that responds to reducing activity.

The next series concerns Leishmania braziliensis. The description is as above. Format: cell-based. As to conditions: for IC50: Leishmania braziliensis, promastigote form, 24 h treatment, resazurin, read-out: IC50 L. braziliensis; for SI L. braziliensis: selectivity index = CC50 (Vero) / IC50 (L. braziliensis promastigotes). As to the method: as §1, §2, §3
In a further series the target is LbOYE (Leishmania braziliensis, UniProt A4H6Z3). As to the kind of experiment: Suppression of intrinsic tryptophan fluorescence of LbOYE. Format: binding. As to conditions: for Affinity of LbOYE for the compound (fluorescence quenching), in words: Hill fit for Kd not possible for these ligands. An excerpt: The recombinant LbOYE protein was produced using the methodology previously described. Briefly, the protein was expressed in strains of bacterial Escherichia coli BL21(DE3) through induction by IPTG using the pET28a:LbOYE vector. The enzyme was purified through a chromatography step of capture by nickel affinity, as the pET28a vector allows the expression of a polyhistidine fusion peptide, located at the N-terminal end of the protein. After affinity purification, the polyhistidine tail was excised by “overnight” incubation with thrombin, and the second purification step was performed using size exclusion chromatography. Purification was evaluated by SDS-PAGE and protein concentration was estimated by spectrophotometry.
The emission spectra of the intrinsic fluorescence of the tryptophan were recorded using a Shimadzu F-4500 spectrofluorometer in the range of 310–420 nm, with opening of slits of excitation and emission at 5.0 nm and λex = 295 nm. Interaction analyzes between LbOYE and ligands were performed at λmax = 333 nm.
(§4) The compounds were solubilized in DMSO and then we made successive dilutions in a Tris-HCl 25 mmol L^−1 buffer, pH 8.0, containing 100 mmol L^−1 of NaCl. For all experiments, the final concentration of DMSO was kept constant and equal to 2.5%. Solutions with increasing concentrations of ligand and constant concentration of LbOYE (1 µmol L^−1) were prepared, which were kept at 25 °C for a period of 1h before acquisition of fluorescence emission spectra.
The results were obtained from the fluorescence emission spectra of the intrinsic tryptophan probe in the presence of the compounds HL1^Ch, HL3^FPh, HL5^NO2Ph, [Au(HL1^Ch)2]Cl and [Ag(HL3^FPh)2]NO3. The bonding parameters were determined by the Hill plot, obtaining the dissociation constant (Kd) through the non-linear adjustment of the saturation curve to the experimental data. The double-log plot was used to determine the bonding constant and the number of bonding sites (n). It also allows the calculation of the bonding constant (Kb) and Kd from 1/Kb.
Equation (1)—Hill’s equation:(1) F0−F/F0=[L]/L+Kd
Equation (2)—Double-log:(2) logF0−F/F0=nlogKb−nlog1/L−(F0−F)[P0]/F
Equation (3)—Equation of Stern–Volmer:(3) F0/F=1+KSV[L]
The study of fluorescence quenching can be affected when the ligand has absorption bands that coincide with excitation and emission wavelengths of fluorescence. This interference is called the internal filter effect, which can be minimized using the procedure described by Equation (4). Fobs and Fcor are the fluorescence intensities at 333 nm measured and corrected, respectively; l represents the optical step where the absorption and emission of light occurs and C0 is the concentration of the ligand.
For the correction of the internal filter effect, were used the molar absorptivity coefficient values in the excitation (295 nm) and emission (333 nm) lengths, [λ/ε (L mol^−1 cm^−1)]; HL1^Ch (εex = 373 and εem = 117), HL3^FPh (εex = 1191 and εem = 57), HL5^NO2Ph (εex = 6162 and εem = 9124), Au1 (εex = 7045 and εem = 4008) and Ag3 (εex = 9431 and εem = 3281).

A short description of series [1]: Solubility in buffer for the fluorescence experiments. Format: physicochemical. As to conditions: Tris-HCl buffer. How it is done: as §4
After the synthesis and structural characterization of the compounds, studies of interaction of the compounds and the recombinant LbOYE were carried out by fluorescence measurements.

Series [2] deals with RAW macrophages infected with Leishmania infantum. The experiment in a line: Infectivity test / infection rate in RAW macrophages. Format: cell-based. Conditions: three concentrations (below IC50, IC50, above IC50), 24 h treatment. How it is done: For the infection of RAW macrophages adhered to the plates, we used parasites in the promastigote form of Leishmania infantum, in the stationary phase, in a ratio of 10:1 (promastigotes/macrophages).
Macrophages were plated in the amount of 5 × 10^4 cells per well, in 96-well plates, which were kept in a CO2 oven at 37 °C for 24 h. The parasites were plated at a concentration of 10:1. The plates were kept in a CO2 oven for 12 h until the parasites infected the cells. […] Plates were fixed with paraformol for further evaluation. Plaques were evaluated by counting parasites within 200 cells under the EVOS Cell Imaging System (Thermo Scientific, Waltham, MA, USA) microscope by staining with propidium iodide.
In view of the data obtained, the six most promising compounds (HL1^Ch, HL2^Ph, Ag3, Ag4, Ag6 and Au2) were selected for carrying out the infection rate test against the L. infantum parasite. […] This test was performed at four stages. The first step determined the percentage of the amount in 200 infected macrophages per parasite, the second determined the percentage of parasites that infects 100 cells/macrophages, the third determined the average percentage of parasites that infects 200 cells/macrophages and, finally, the fourth step indicated the infection rate, that is, the result of the amount of Leishmania per macrophage (obtained from the third step) multiplied by the percentage of infected macrophages. Figure 5 presents the graphs of the infection rates, while the other graphs can be found in Figure S7.4.

Series [3] can be described thus: Cytotoxicity assay on Vero cells (resazurin). Format: cell-based, African green monkey. Conditions: African green monkey, Vero cells (ATCC CRL-1587), 24 h treatment. How it is done: For the experiment, Vero cells (ATCC CRL-1587) were used in Roswell Parl Memorial Institute (RPMI) medium with 10% fetal bovine serum (FBS) (RPMI 10%) and 20 μg/mL of Gentamicin. They were cultivated in culture bottles of […] and kept in an oven at 37 °C with 5% carbon dioxide (CO2). When picked or used on the day of the experiment, the cells were detached from the wall of the bottles with saline and 1X trypsin/EDTA. To find out how many cells there were in the bottle, it was diluted in Turkey liquid and then we proceeded with the counting in the Neubauer Chamber to calculate the desired concentrations. The Vero cells were plated at […] cells per well, in 96-well plates, and kept in an incubator with 5% CO2 at 37 °C for 24 h. Then, the compounds were added in triplicate, starting at a concentration of 500 µM, with serial dilution being performed up to a concentration of 3.9 µM [54]. The treatment was carried out for 24 h, and, after adding 5 µL of resazurin, the fluorescence was read using a spectrofluorometer (EnSpire Perkin-Elmer, Waltham, MA, USA).

Another series relates to L. infantum. Further details: method as in PMID 21833767, PMID 22926569. As to conditions: conditions and methods vary; read-out: Antileishmanial activity of other compounds; cited from earlier work.

Data on eight compounds can be found in PMC11053681, “Gold(I) and Silver(I) Complexes Containing Hybrid Sulfonamide/Thiourea Ligands as Potential Leishmanicidal Agents” (Pharmaceutics, 2024).

Values joined by “and” are separate entries in the source; they are usually repeats but may differ in a detail not shown here. Identical values can stand only once. “Also recorded” adds a separate entry of the source. Like-named read-outs stand apart in the source and are kept apart here.

As a reminder, the CC50 is the concentration giving 50% cytotoxicity. Read a low CC50 as greater toxicity to the cells. The term Kd denotes the concentration at which binding is half-saturated.

Chain of LbOYE (A4H6Z3 entry or part of it): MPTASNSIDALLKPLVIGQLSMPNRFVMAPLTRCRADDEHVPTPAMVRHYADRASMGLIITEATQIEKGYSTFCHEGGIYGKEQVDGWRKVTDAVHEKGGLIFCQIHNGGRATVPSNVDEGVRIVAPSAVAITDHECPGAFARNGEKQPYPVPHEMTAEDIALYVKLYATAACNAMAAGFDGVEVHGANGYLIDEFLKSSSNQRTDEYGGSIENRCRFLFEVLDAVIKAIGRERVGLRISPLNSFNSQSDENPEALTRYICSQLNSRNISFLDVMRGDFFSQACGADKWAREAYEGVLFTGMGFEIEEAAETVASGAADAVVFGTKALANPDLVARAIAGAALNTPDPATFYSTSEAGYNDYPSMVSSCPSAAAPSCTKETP

On to `Cc1ccc(S(=O)(=O)NNC(=S)NC2CCCCC2)cc1` [HL1^Ch], for which, in the series with Leishmania infantum, the IC50 came to 11 ± 0.306 µM; the “SI L. infantum” value is 26.6 and 26.64. Further, in the series on Leishmania braziliensis, the IC50 is 128.9 ± 0.051 µM and the “SI L. braziliensis” value was 2.27. Further, the “Affinity of LbOYE for the compound (fluorescence quenching), in words” value on LbOYE is “lower affinity”. The “Solubility in buffer at the concentrations for the fluorescence experiments, in words” value (“Solubility in buffer” for short) in series [1] is “passed this stage”. Moreover, the “Infection rate of L. infantum in macrophages, in words” value in series [2] is reported as “considerably lowered the infection rate of the parasite even at a concentration below its IC50”. The compound further yielded a 50% cytotoxic concentration (CC50) at 24 h in series [3] of 293 µM.

For `Cc1ccc(S(=O)(=O)NNC(=S)Nc2ccccc2)cc1` [HL2^Ph], in the series with Leishmania infantum, the IC50 was 48.39 ± 0.189 µM; the “SI L. infantum” value was 5.5 and 5.54. In the series on Leishmania braziliensis, the IC50 was determined as 273.5 ± 0.018 µM and the “SI L. braziliensis” value came to 0.98. Moreover, the “Infection rate of L. infantum in macrophages, in words” value in series [2] is reported as “the infection index was not relevant for a concentration below its IC50”. Further, the midpoint of cytotoxicity in series [3], the CC50 at 24 h, lay at 268 µM.

In the case of `Cc1ccc(S(=O)(=O)NNC(=S)Nc2ccc(F)cc2)cc1` [HL3^FPh, N-(4-fluorophenyl)-2-tosylhydrazinocarbothioamide], in the series with Leishmania infantum, the IC50 worked out at 201.2 ± 0.052 µM and the “SI L. infantum” value came to 1.450. Further, in the series on Leishmania braziliensis, the IC50 came to 204.5 ± 0.018 µM and the “SI L. braziliensis” value was found to be 1.43. The “Affinity of LbOYE for the compound (fluorescence quenching), in words” value at LbOYE is on record as “lower affinity; also recorded: low affinity”. The “Solubility in buffer” value in series [1] is “passed this stage”. The same compound registered a CC50 at 24 h in series [3] of 292 µM.

For the compound `Cc1ccc(S(=O)(=O)NNC(=S)Nc2ccc([N+](=O)[O-])cc2)cc1` [HL5^NO2Ph, N-(4-nitrophenyl)-2-tosylhydrazinocarbothioamide], the IC50 stood at 286.9 ± 0.075 µM in the series with Leishmania infantum and 19.02 ± 0.012 µM with Leishmania braziliensis. For the same compound, the “SI L. infantum” value in the series on Leishmania infantum came out at 0.09. The “SI L. braziliensis” value in the series with Leishmania braziliensis is 1.40. The Kd was 35 ± 2 µM on LbOYE (Hill plot (n = 1), Equation (1), 25 °C, Tris-HCl pH 8.0, 2.5% DMSO, read-out: Kd * (Hill plot)) and 19 ± 1 µM at LbOYE (double log, Equation (2), Kd = 1/Kb, 25 °C, read-out: Kd ** (double log) (converted)). The “Ksv *** (Stern–Volmer constant)” value on LbOYE (Stern–Volmer, Equation (3), 25 °C) is 6.5 ± 0.4 × 10^4. The “n ** (number of bonding sites)” value at LbOYE (double log, Equation (2), 25 °C) was determined as 1.5 ± 0.1. The “Solubility in buffer” value in series [1] is given as “passed this stage”. The midpoint of cytotoxicity in series [3], the CC50 at 24 h, lay at 26.6 µM.

As for `CCP(CC)CC.[Au+].[Cl-]` [[AuCl(PEt3)]], the IC50 in the series with L. infantum was 16.6 ± 1.03 µM.

For the compound `CC(=O)OC[C@H]1O[C@@H]([S-])[C@H](OC(C)=O)[C@@H](OC(C)=O)[C@@H]1OC(C)=O.CCP(CC)CC.[Au+]` [auranofin], the IC50 with L. infantum was 9.68 ± 1.02 µM.

Consider `CCCCCCCCCCCCCCCCOP(=O)([O-])OCC[N+](C)(C)C` [miltefosine], for which the IC50 in the series on L. infantum is 14.4 ± 1.1 µM.

For `COc1cc(NC(C)CCCN)c2ncccc2c1` (centres unmarked) [primaquine], in the series with L. infantum, the IC50 was 26.5 ± 1.2 µM.
